Patent US20210267953A1, “SUBSTITUTED OXAZOLIDINONES FOR THE TREATMENT OF MAMMALIAN INFECTIONS” (CADILA HEALTHCARE LIMITED, priority 2018, published 2021)
≈ marks a conversion by molar mass, not a printed value.

The molecules below were run on Mycobacterium tuberculosis H37Rv (assay: Minimum Inhibitory Concentration (MIC) determination, MABA assay). Conditions: Microplate Alamar Blue Assay, M. tuberculosis H37Rv log phase culture in 7H-9 medium, 7 days at 37° C., lowest concentration that prevents colour change blue to pink, read-out: Mtb MIC.
Type: cell-based
Work on `CC(=O)NC[C@H]1CN(c2cc(F)c(N3CCC(C4COC4)CC3)c(F)c2)C(=O)O1` [Example 8, (S)—N-((3-(3,5-difluoro-4-(4-(oxetan-3-yl)piperidin-1-yl)phenyl)-2-oxooxazolidin-5-yl)methyl)acetamide] yielded an MIC of 2.5 µM (≈ 1.02 µg/mL). For `CC(=O)NC[C@H]1CN(c2ccc(N3CCC4(CC3)COC4)c(F)c2)C(=O)O1` [Example 7, (S)—N-((3-(3-fluoro-4-(2-oxa-7-azaspiro[3.5]nonan-7-yl)phenyl)-2-oxooxazolidin-5-yl)methyl)acetamide], the MIC was 2.5 µM (≈ 0.944 µg/mL). For `CC(=O)NC[C@H]1CN(c2ccc(N3CCC4(CC3)CS(=O)(=O)C4)c(F)c2)C(=O)O1` [Example 5, (S)—N-((3-(4-(2,2-dioxido-2-thia-7-azaspiro[3.5]nonan-7-yl)-3-fluorophenyl)-2-oxooxazolidin-5-yl)methyl)acetamide], the MIC was 1.25 µM (≈ 0.532 µg/mL). Work on `O=C1O[C@@H](CNc2ccon2)CN1c1cc(F)c(N2CCC3(CC2)CS(=O)(=O)C3)c(F)c1` [Example 2, (S)-3-(4-(2,2-dioxido-2-thia-7-azaspiro[3.5]nonan-7-yl)-3,5-difluorophenyl)-5-((isoxazol-3-ylamino)methyl)oxazolidin-2-one] yielded an MIC of 1.25 µM (≈ 0.586 µg/mL). With `COC(=O)NC[C@H]1CN(c2cc(F)c(N3CCC4(CC3)CS(=O)(=O)C4)c(F)c2)C(=O)O1` [Example 4, (S)-methyl ((3-(4-(2,2-dioxido-2-thia-7-azaspiro[3.5]nonan-7-yl)-3,5-difluorophenyl)-2-oxooxazolidin-5-yl)methyl)carbamate] the MIC was 1.25 µM (≈ 0.574 µg/mL). In the case of `CC(=O)NC[C@H]1CN(c2cc(F)c(N3CCC4(CC3)CS(=O)(=O)C4)c(F)c2)C(=O)O1` [Example 3, (S)—N-((3-(4-(2,2-dioxido-2-thia-7-azaspiro[3.5]nonan-7-yl)-3,5-difluorophenyl)-2-oxooxazolidin-5-yl)methyl)acetamide], the MIC is reported as 1.25 µM (≈ 0.554 µg/mL). For `CC(=O)NC[C@H]1CN(c2cc(F)c(N3CCC4(CC3)COC4)c(F)c2)C(=O)O1` [Example 6, (S)—N-((3-(3,5-difluoro-4-(2-oxa-7-azaspiro[3.5]nonan-7-yl)phenyl)-2-oxooxazolidin-5-yl)methyl)acetamide], the MIC was 1.25 to 2.5 µM (≈ 0.494 to 0.989 µg/mL). `CC(=O)NC[C@H]1CN(c2cc(F)c(N3CCC(C4CS(=O)(=O)C4)CC3)c(F)c2)C(=O)O1` [Example 9, (S)—N-((3-(4-(4-(1,1-dioxidothietan-3-yl)piperidin-1-yl)-3,5-difluorophenyl)-2-oxooxazolidin-5-yl)methyl)acetamide] gave an MIC of 1.25 µM (≈ 0.572 µg/mL). `O=C1O[C@@H](Cn2ccnn2)CN1c1cc(F)c(N2CCC3(CC2)CS(=O)(=O)C3)c(F)c1` [Example 1, (R)-5-((1H-1,2,3-triazol-1-yl)methyl)-3-(4-(2,2-dioxido-2-thia-7-azaspiro[3.5]nonan-7-yl)-3,5-difluorophenyl)oxazolidin-2-one] gave an MIC of 1.25 µM (≈ 0.567 µg/mL). Work on `CC(=O)NC[C@H]1CN(c2ccc(N3CCC(C4CS(=O)(=O)C4)CC3)c(F)c2)C(=O)O1` [Example 10, (S)—N-((3-(4-(4-(1,1-dioxidothietan-3-yl)piperidin-1-yl)-3-fluorophenyl)-2-oxooxazolidin-5-yl)methyl)acetamide] yielded an MIC of 2.5 µM (≈ 1.1 µg/mL).
